# Activity calls are given as the source filed them. The calls are words filed in the database; no cut-off is given here.
# Key:
# [1] = biological target: NAD-dependent protein deacetylase sirtuin-1 (Homo sapiens, UniProt Q96EB6, I347A); experiment: Inhibition of N-terminal hexa-His-tagged human SIRT1 I347A mutant (156 to 664 residues) expressed in Escherichia coli BL21 (DE3) assessed as dissociation equilibrium constant using Abz-GVLKacAYNO2GY-NH2 as substrate in presence of varying level of NAD+ by Lineweaver-burk plot analysis
# Sequence of NAD-dependent protein deacetylase sirtuin-1 (Homo sapiens, UniProt Q96EB6, I347A) (Q96EB6 2-747 I347A limits assumed): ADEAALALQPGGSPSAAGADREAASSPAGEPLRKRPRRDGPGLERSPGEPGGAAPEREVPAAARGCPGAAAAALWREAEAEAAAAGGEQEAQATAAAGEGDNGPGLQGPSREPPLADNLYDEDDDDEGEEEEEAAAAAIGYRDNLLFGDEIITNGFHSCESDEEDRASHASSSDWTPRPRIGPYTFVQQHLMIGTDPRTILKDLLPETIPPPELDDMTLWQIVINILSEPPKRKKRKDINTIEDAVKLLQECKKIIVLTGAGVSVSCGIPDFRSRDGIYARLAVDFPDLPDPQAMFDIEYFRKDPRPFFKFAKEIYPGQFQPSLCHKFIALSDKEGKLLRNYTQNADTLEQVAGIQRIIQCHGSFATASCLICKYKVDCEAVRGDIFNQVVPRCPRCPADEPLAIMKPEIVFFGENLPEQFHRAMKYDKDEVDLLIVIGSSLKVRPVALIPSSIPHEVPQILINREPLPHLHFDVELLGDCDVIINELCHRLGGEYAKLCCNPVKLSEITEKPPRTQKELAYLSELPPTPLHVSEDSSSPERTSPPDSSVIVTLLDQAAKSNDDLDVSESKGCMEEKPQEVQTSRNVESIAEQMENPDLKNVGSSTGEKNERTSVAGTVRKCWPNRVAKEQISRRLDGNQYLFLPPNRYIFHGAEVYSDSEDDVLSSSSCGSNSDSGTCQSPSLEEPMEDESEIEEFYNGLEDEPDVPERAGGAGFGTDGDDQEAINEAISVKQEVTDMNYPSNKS
# [2] = biological target: T1, NAD-dependent protein deacetylase sirtuin-1 (Homo sapiens, UniProt Q96EB6); experiment: Inhibition of wild type N-terminal hexa-His-tagged human SIRT1 (156 to 664 residues) expressed in Escherichia coli BL21 (DE3) assessed as dissociation equilibrium constant using Abz-GVLKacAYNO2GY-NH2 as substrate in presence of varying level of NAD+ by Lineweaver-burk plot analysis
# T1 sequence (Q96EB6 whole entry): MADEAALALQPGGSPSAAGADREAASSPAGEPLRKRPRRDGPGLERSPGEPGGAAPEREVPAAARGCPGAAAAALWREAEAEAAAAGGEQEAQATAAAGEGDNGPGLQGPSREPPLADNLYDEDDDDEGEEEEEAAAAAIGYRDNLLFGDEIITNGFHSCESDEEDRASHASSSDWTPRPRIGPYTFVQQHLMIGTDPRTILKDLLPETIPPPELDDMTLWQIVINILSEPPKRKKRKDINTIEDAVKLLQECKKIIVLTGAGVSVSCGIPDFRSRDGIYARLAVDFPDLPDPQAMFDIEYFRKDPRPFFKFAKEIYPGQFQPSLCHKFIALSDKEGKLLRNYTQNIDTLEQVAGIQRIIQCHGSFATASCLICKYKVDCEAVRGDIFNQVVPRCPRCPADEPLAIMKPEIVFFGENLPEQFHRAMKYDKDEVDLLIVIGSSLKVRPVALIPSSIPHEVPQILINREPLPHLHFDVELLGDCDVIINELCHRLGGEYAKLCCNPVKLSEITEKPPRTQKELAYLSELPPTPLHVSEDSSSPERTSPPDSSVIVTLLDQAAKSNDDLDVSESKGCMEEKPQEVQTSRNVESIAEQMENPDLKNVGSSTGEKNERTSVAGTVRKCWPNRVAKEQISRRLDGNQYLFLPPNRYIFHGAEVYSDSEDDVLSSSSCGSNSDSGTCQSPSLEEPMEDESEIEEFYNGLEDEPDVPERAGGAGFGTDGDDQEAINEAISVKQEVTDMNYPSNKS
# [3] = biological target: NAD-dependent protein deacylase sirtuin-5, mitochondrial (Homo sapiens, UniProt Q9NXA8); experiment: Inhibition of N-terminal 8His-tagged human SIRT5 (34 to 302 residues) expressed in Escherichia coli Rosetta2 (DE3) using Abz-GVLKacAYNO2GY-NH2 peptide as substrate incubated for 30 mins in presence of NAD+ by fluorescence microplate reader assay; conditions: read-out: IC50
# Sequence of NAD-dependent protein deacylase sirtuin-5, mitochondrial (Q9NXA8 whole entry, the tested form may be a part): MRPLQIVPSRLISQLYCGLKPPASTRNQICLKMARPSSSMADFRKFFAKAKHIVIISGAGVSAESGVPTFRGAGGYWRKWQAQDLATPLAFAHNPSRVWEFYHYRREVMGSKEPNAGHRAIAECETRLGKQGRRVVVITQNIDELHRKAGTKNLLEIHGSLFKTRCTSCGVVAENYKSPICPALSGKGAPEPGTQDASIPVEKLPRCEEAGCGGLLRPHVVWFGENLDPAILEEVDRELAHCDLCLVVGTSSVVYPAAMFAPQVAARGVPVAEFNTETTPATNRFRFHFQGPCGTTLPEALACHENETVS
# [4] = biological target: T1, NAD-dependent protein deacetylase sirtuin-1; experiment: Inhibition of N-terminal hexa-His-tagged human SIRT1 (156 to 664 residues) expressed in Escherichia coli BL21 (DE3) assessed as deacetylation of Abz-labeled acetyl peptide using Abz-GVLKacAYNO2GY-NH2 peptide as substrate incubated for 30 mins in presence of NAD+ by fluorescence microplate reader assay; conditions: read-out: IC50
# [5] = Inhibition of N-terminal hexa-His-tagged human SIRT1 D348A mutant (156 to 664 residues) expressed in Escherichia coli BL21 (DE3) assessed as dissociation equilibrium constant using Abz-GVLKacAYNO2GY-NH2 as substrate in presence of varying level of NAD+ by Lineweaver-burk plot analysis
# [6] = biological target: NAD-dependent protein deacylase sirtuin-6 (Homo sapiens, UniProt Q8N6T7); experiment: Inhibition of recombinant N-terminal hexa-His-tagged SIRT6 (3 to 318 residues) (unknown origin) expressed in Escherichia coli BL21 (DE3) using RHKKac-AMC as substrate incubated for 2 hrs in presence of NAD+ by fluorescence microplate reader assay
# Sequence of NAD-dependent protein deacylase sirtuin-6 (Q8N6T7 whole entry, the tested form may be a part): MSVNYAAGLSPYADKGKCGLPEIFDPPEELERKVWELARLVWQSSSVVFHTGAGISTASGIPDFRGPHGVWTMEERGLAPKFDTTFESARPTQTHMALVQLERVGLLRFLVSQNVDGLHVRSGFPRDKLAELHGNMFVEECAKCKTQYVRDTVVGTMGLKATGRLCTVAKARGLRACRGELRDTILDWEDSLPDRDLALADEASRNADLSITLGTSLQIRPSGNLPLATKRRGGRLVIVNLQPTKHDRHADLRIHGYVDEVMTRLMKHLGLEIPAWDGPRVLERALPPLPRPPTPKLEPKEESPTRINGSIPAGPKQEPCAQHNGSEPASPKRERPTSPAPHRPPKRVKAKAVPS
# [7] = biological target: T2, NAD-dependent protein deacetylase sirtuin-1 (Homo sapiens) (UniProt Q96EB6); experiment: Non-competitive inhibition of N-terminal hexa-His-tagged human SIRT1 (156 to 664 residues) expressed in Escherichia coli BL21 (DE3) assessed as decrease in initial velocity V0 at 0.47 to 1.98 uM using Abz-GVLKacAYNO2GY-NH2 as substrate in presence of varying level of NAD+ by Lineweaver-burk plot analysis; conditions: dose 0.47-1.98 µM
# T2 sequence (whole entry): T1 sequence (Q96EB6 whole entry)
# [8] = biological target: T2, NAD-dependent protein deacetylase sirtuin-1 (Homo sapiens); experiment: Non-competitive inhibition of N-terminal hexa-His-tagged human SIRT1 (156 to 664 residues) expressed in Escherichia coli BL21 (DE3) assessed as effect on Km at 0.47 to 1.98 uM using Abz-GVLKacAYNO2GY-NH2 as substrate in presence of varying level of NAD+ by Lineweaver-burk plot analysis; conditions: dose 0.47-1.98 µM
# [9] = biological target: T3, NAD-dependent protein deacetylase sirtuin-2 (Homo sapiens, UniProt Q8IXJ6); experiment: Inhibition of GST-fusion tagged human SIRT2 (34 to 356 residues) expressed in Escherichia coli BL21 (DE3) using Abz-GVLKacAYNO2GY-NH2 peptide as substrate incubated for 30 mins in presence of NAD+ by fluorescence microplate reader assay
# T3 sequence (Q8IXJ6 whole entry): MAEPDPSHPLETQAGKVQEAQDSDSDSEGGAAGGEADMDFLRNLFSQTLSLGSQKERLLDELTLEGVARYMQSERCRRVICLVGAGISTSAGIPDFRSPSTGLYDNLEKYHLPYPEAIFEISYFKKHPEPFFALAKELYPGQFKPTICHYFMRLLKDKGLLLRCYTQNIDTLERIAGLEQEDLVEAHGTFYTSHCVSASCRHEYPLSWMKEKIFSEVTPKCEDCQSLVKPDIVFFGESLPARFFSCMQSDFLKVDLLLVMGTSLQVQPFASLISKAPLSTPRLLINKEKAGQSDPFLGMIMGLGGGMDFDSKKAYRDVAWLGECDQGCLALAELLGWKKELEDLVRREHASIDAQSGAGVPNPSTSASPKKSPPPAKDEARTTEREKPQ
# [10] = biological target: NAD-dependent protein deacetylase sirtuin-1 (Homo sapiens, UniProt Q96EB6, N346A); experiment: Inhibition of N-terminal hexa-His-tagged human SIRT1 N346A mutant (156 to 664 residues) expressed in Escherichia coli BL21 (DE3) assessed as dissociation equilibrium constant using Abz-GVLKacAYNO2GY-NH2 as substrate in presence of varying level of NAD+ by Lineweaver-burk plot analysis
# Sequence of NAD-dependent protein deacetylase sirtuin-1 (Homo sapiens, UniProt Q96EB6, N346A) (Q96EB6 2-747 N346A limits assumed): as the sequence (Q96EB6 2-747 I347A limits assumed) above, with N345A, A346I counted along it
# [11] = biological target: T2, NAD-dependent protein deacetylase sirtuin-1 (Homo sapiens); experiment: (§1) Mixed-type inhibition of N-terminal hexa-His-tagged human SIRT1 (156 to 664 residues) expressed in Escherichia coli BL21 (DE3) assessed as decrease in Km at 0.47 to 1.98 uM using varying levels Abz-GVLKacAYNO2GY-NH2 peptide as substrate in presence of NAD+ by Lineweaver-burk plot analysis; conditions: dose 0.47-1.98 µM
# [12] = biological target: T2, NAD-dependent protein deacetylase sirtuin-1 (Homo sapiens); experiment: as §1, with “initial velocity V0” for “Km”; conditions: dose 0.47-1.98 µM
# [13] = biological target: T2, NAD-dependent protein deacetylase sirtuin-1 (Homo sapiens); experiment: Inhibition of SIRT1 in human SH-SY5Y cells assessed as increase in acetylated p53 level at 10 uM measured after 72 hrs in presence of ATRA by Western blot analysis; format: cell-based
# [14] = biological target: NAD-dependent protein deacetylase sirtuin-1 (Homo sapiens, UniProt Q96EB6, F414A); experiment: Inhibition of N-terminal hexa-His-tagged human SIRT1 F414A mutant (156 to 664 residues) expressed in Escherichia coli BL21 (DE3) assessed as dissociation equilibrium constant using Abz-GVLKacAYNO2GY-NH2 as substrate in presence of varying level of NAD+ by Lineweaver-burk plot analysis
# Sequence of NAD-dependent protein deacetylase sirtuin-1 (Homo sapiens, UniProt Q96EB6, F414A) (Q96EB6 2-747 F414A limits assumed): as the sequence (Q96EB6 2-747 I347A limits assumed) above, with A346I, F413A counted along it
# [15] = biological target: NAD-dependent protein deacetylase sirtuin-1 (Homo sapiens, UniProt Q96EB6, F273L); experiment: Inhibition of N-terminal hexa-His-tagged human SIRT1 F273L mutant (156 to 664 residues) expressed in Escherichia coli BL21 (DE3) assessed as dissociation equilibrium constant using Abz-GVLKacAYNO2GY-NH2 as substrate in presence of varying level of NAD+ by Lineweaver-burk plot analysis
# Sequence of NAD-dependent protein deacetylase sirtuin-1 (Homo sapiens, UniProt Q96EB6, F273L) (Q96EB6 2-747 F273L limits assumed): as the sequence (Q96EB6 2-747 I347A limits assumed) above, with F272L, A346I counted along it
# [16] = biological target: T4, NAD-dependent protein deacetylase sirtuin-3, mitochondrial (Homo sapiens, UniProt Q9NTG7); experiment: Inhibition of SIRT3 (unknown origin)
# T4 sequence (Q9NTG7 whole entry): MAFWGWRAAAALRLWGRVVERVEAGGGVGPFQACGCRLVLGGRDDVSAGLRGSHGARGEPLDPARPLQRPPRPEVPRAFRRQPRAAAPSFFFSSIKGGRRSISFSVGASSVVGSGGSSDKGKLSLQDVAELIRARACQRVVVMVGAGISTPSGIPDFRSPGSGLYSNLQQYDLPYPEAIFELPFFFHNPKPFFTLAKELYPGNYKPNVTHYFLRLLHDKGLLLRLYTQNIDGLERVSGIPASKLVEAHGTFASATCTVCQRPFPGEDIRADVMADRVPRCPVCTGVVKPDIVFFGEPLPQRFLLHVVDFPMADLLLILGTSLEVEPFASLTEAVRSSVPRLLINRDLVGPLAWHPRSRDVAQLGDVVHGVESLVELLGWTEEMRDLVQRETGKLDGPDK
# [17] = biological target: T1, NAD-dependent protein deacetylase sirtuin-1; experiment: Inhibition of His-tagged SIRT1 (unknown origin) expressed in Escherichia coli codon plus (DE3) using acetylated p53 as substrate
smiles,measurement,setting,value
COc1cc(C=C2C(=O)OC(c3ccccc3)OC2=O)cc(Br)c1O (configuration not stated),Ki,[1],710 nM
same,Ki,[2],100 nM
same,IC50,[3],19800 nM
same,IC50,[4],1310 nM
same,Ki,[5],7060 nM
same,IC50,[6],Not Active
same,inhibition,[7],Active
same,inhibition,[8],Active
same,IC50,[9],54000 nM
same,Ki,[10],1940 nM
same,inhibition,[11],Active
same,inhibition,[12],Active
same,increase in acetylated p53 level (qualitative),[13],Active
same,Ki,[14],18200 nM
same,Ki,[15],650 nM
CC1=CCC(C(=O)/N=C2\CC=C(S(=O)(=O)O)c3cc(S(=O)(=O)O)cc(S(=O)(=O)O)c32)=C/C1=N/C(=O)C1=CC=C/C(=N\C(=O)/N=C2\C=CC=C(C(=O)/N=C3/CC(C(=O)/N=C4\CC=C(S(=O)(=O)O)c5cc(S(=O)(=O)O)cc(S(=O)(=O)O)c54)=CC=C3C)C2)C1,IC50,[16],22000 nM
CCC(Sc1nnc2c(n1)[nH]c1ccccc12)C(=O)N1c2ccccc2Sc2ccccc21 (configuration not stated),IC50,[17],100 nM

# Source: ChEMBL document CHEMBL4680375 (ACS Med Chem Lett, 2021)
